Laboratory results reported in patent US20260097046A1, “PLASMODIUM FALCIPARUM BLOOD STAGE INHIBITORS” (University of Georgia Research Foundation, Inc., priority 2023, published 2026).

Assay: Solubility by HPLC assay
Assay type: physicochemical
Conditions: pH 7.4, HPLC assay
Experimental: Solubility was assessed for selected compounds using an HPLC assay.

SMILES | Solubility (μM) at pH 7.4 [μM]
Cc1ccc(N(C)C(=O)c2ncn(-c3ccc(C)cc3)n2)cc1 [APZ-2327, N-methyl-N,1-di-p-tolyl-1H-1,2,4-triazole-3-carboxamide] | 19.1
Cc1ccc(-c2cncc(C(=O)N(C)c3ccc(Cl)cc3)c2)cc1 [APZ-2160, N-(4-chlorophenyl)-N-methyl-5-(p-tolyl)nicotinamide] | 12.8
